Data reported in ChEMBL document CHEMBL3991601, “The target landscape of clinical kinase drugs” (Science, 2017).
Active and inactive are the calls of the source.

Legend:
[1] = target: Dual specificity testis-specific protein kinase 1 (Homo sapiens, UniProt Q15569)
[2] = target: T1, Bone morphogenetic protein receptor type-2 (Homo sapiens, UniProt Q13873)
T1 sequence (Q13873 whole entry): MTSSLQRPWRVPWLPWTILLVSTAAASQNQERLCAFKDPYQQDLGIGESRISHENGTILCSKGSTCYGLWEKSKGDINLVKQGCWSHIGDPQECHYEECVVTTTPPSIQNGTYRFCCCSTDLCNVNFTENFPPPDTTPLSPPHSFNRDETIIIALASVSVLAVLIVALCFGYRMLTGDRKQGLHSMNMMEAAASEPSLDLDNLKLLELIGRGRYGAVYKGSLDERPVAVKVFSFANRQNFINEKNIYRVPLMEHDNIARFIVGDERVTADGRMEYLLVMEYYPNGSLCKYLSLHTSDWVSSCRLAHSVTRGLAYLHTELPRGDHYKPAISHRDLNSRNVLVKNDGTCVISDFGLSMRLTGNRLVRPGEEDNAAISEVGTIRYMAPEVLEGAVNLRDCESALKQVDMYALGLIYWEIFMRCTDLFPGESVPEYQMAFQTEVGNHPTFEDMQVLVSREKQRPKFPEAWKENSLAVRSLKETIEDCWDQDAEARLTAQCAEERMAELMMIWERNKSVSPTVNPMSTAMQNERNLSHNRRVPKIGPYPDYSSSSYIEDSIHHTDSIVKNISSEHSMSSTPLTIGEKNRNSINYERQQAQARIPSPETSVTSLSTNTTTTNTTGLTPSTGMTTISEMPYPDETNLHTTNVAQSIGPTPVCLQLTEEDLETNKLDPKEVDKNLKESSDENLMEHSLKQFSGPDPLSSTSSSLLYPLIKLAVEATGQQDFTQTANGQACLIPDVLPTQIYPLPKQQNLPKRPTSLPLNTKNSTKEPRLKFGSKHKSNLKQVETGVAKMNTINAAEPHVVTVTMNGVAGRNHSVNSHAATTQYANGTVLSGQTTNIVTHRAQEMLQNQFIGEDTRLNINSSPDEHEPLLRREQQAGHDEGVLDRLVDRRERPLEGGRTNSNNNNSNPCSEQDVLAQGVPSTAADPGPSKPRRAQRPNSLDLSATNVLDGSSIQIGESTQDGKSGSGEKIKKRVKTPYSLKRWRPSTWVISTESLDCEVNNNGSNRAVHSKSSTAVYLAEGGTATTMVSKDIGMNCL

Scaffold protein ILK = target: T2, Scaffold protein ILK (Homo sapiens, UniProt Q13418)
T2 sequence (Q13418 whole entry): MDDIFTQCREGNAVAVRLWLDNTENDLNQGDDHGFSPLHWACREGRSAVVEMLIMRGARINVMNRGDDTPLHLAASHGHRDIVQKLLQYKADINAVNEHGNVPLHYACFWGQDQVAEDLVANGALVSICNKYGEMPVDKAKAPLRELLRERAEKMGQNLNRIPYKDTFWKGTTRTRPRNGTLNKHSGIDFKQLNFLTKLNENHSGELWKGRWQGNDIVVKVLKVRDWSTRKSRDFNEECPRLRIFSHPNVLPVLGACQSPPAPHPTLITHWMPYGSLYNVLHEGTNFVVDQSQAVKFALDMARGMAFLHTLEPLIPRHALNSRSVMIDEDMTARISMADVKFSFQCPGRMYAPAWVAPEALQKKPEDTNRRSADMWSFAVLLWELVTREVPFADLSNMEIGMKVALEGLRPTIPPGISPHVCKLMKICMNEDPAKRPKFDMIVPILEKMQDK

[3] = target: Elongation factor Tu, mitochondrial (Homo sapiens, UniProt P49411)
[4] = target: T3, Ribosyldihydronicotinamide dehydrogenase [quinone] (Homo sapiens, UniProt P16083)
T3 sequence (P16083 whole entry): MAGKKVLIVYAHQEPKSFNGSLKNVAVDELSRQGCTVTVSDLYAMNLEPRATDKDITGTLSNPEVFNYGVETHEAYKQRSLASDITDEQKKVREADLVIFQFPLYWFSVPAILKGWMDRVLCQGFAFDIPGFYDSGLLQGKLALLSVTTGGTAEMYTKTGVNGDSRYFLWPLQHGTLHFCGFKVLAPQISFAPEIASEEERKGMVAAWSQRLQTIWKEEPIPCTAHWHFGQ

[5] = target: Tyrosine-protein kinase Fer (Homo sapiens, UniProt P16591)
Also: in the data inactive means no Kd found up to 30 µM.

Chain of Dual specificity testis-specific protein kinase 1 (Q15569 whole entry): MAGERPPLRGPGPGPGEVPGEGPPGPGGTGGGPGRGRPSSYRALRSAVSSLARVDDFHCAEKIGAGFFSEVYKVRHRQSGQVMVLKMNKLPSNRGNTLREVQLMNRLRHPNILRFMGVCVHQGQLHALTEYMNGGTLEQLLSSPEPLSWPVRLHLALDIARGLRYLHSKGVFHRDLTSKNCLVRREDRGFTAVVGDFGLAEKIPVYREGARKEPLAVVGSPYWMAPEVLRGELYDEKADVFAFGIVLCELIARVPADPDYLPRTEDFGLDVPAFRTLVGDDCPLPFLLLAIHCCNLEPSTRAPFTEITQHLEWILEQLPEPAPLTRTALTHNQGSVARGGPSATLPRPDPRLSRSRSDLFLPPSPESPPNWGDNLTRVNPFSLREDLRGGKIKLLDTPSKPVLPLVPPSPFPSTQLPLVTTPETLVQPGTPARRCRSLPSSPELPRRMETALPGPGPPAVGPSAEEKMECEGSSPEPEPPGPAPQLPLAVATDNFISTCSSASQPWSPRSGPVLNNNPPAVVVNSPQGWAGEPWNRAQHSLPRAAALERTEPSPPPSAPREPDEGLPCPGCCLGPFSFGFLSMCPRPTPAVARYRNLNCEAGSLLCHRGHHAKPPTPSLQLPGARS
Chain of Tyrosine-protein kinase Fer (P16591 whole entry): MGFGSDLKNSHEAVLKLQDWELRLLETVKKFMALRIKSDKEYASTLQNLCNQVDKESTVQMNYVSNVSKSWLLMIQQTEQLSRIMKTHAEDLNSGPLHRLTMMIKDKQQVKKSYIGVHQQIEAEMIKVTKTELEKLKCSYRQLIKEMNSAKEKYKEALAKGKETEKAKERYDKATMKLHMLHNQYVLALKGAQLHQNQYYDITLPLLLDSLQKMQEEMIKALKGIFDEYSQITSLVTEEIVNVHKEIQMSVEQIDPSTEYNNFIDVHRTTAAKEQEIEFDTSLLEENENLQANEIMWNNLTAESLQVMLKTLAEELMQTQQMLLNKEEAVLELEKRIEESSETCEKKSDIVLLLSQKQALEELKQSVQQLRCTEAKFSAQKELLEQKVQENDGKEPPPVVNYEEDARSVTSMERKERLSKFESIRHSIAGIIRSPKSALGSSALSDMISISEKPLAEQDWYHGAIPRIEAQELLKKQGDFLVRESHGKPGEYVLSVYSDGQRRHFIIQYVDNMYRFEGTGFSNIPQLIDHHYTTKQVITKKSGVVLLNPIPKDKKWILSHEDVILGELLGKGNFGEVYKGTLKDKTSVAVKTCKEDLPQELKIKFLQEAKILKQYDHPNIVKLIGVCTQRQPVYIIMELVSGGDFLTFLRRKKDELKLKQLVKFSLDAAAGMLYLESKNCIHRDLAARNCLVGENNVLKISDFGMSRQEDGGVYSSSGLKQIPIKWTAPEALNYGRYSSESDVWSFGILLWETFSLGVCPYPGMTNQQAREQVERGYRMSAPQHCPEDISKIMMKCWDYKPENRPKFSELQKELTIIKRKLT

Compound | Kd [1] | Kd [2] | Kd (Scaffold protein ILK) | Kd [3] | Kd [4] | Kd [5]
COc1cc(Nc2ncc3c(n2)-c2ccc(Cl)cc2C(c2c(F)cccc2OC)=NC3)ccc1C(=O)O [ALISERTIB] | > 30 µM (inactive) | > 30 µM (inactive) | > 30 µM (inactive) | > 30 µM (inactive) | > 30 µM (inactive) | –
CNC(=O)c1ccccc1Sc1ccc2c(/C=C/c3ccccn3)n[nH]c2c1 [AXITINIB] | – | – | > 30 µM (inactive) | > 30 µM (inactive) | > 30 µM (inactive) | –
NC(=O)Nc1cc(-c2cccc(F)c2)sc1C(=O)N[C@H]1CCCNC1 [AZD-7762] | > 30 µM (inactive) | > 30 µM (inactive) | > 30 µM (inactive) | > 30 µM (inactive) | > 30 µM (inactive) | –
CC(C)(C)c1nc(-c2cccc(NS(=O)(=O)c3c(F)cccc3F)c2F)c(-c2ccnc(N)n2)s1 [DABRAFENIB] | > 30 µM (inactive) | > 30 µM (inactive) | > 30 µM (inactive) | > 30 µM (inactive) | > 30 µM (inactive) | > 30 µM (inactive)
Cn1cc(C2=C(c3cn(C4CCN(Cc5ccccn5)CC4)c4ccccc34)C(=O)NC2=O)c2ccccc21 [ENZASTAURIN] | – | – | > 30 µM (inactive) | > 30 µM (inactive) | > 30 µM (inactive) | –
C[C@@H](Oc1cc(-n2cnc3ccc(CN4CCN(C)CC4)cc32)sc1C(N)=O)c1ccccc1C(F)(F)F [GSK-461364] | – | – | > 30 µM (inactive) | > 30 µM (inactive) | > 30 µM (inactive) | –
Cc1[nH]c(/C=C2\C(=O)Nc3ccccc32)c(C)c1CCC(=O)O [ORANTINIB] | > 30 µM (inactive) | 0.019 µM (active) | > 30 µM (inactive) | > 30 µM (inactive) | > 30 µM (inactive) | –

Continued, in another order:

Kd [1] | Kd [2] | Kd (Scaffold protein ILK) | Kd [3] | Kd [4] | Compound | Kd [5]
1.42 µM (active) | > 30 µM (inactive) | > 30 µM (inactive) | > 30 µM (inactive) | > 30 µM (inactive) | NC(=O)c1c(OCc2c(F)cc(Br)cc2F)nsc1NC(=O)NCCCCN1CCCC1 [OSI-632] | –
> 30 µM (inactive) | 0.008 µM | > 30 µM (inactive) | > 30 µM (inactive) | > 30 µM (inactive) | CC(=O)NCC(=O)N1[C@@H]2CC[C@H]1c1ccc(Nc3ncc(C(F)(F)F)c(NC4CCC4)n3)cc12 [PF-03814735] | –
– | – | > 30 µM (inactive) | > 30 µM (inactive) | > 30 µM (inactive) | O=C(NOCCO)c1cc(CN2OCCCC2=O)c(F)c(F)c1Nc1ccc(I)cc1F [RO-4987655] | –
– | – | > 30 µM (inactive) | > 30 µM (inactive) | > 30 µM (inactive) | N#CC[C@H](C1CCCC1)n1cc(-c2ncnc3[nH]ccc23)cn1 [RUXOLITINIB] | –
